Reference: the COVID Moonshot data (paper PMC11187573), “Identification of SARS-CoV-2 Mpro inhibitors through deep reinforcement learning for de novo drug design and computational chemistry approaches” (RSC Medicinal Chemistry, 2024)

Experiments:
[1] = target: SARS-CoV-2 Main Protease (SARS-CoV-2) (UniProt P0DTD1)
[2] = target: SARS-CoV-2 Main Protease (SARS-CoV-2) (UniProt P0DTD1); remark: listed apart in the source

SMILES | relative solubility at 20 uM | relative solubility at 100 uM | inhibition ([1]; 20.0 µM) [%] | inhibition ([1]; 50.0 µM) [%] | inhibition ([2]; 20.0 µM) [%] | inhibition ([2]; 50.0 µM) [%] | IC50 [1] [µM] | IC50 [2] [µM]
O=C(CCn1ccnn1)NC(CN1CCOCC1)c1ccccc1 (configuration not stated) | 1 | 1 | 0 | 0 | 2.31 | 5.19 |  | 
Cc1ccc(S(=O)(=O)N2CCN(C(=O)c3cc(=O)[nH]c4ccc(Cl)cc34)CC2)cc1 | 0.97 | 0.88 |  | 11.5 | -0.869 | -0.533 |  | 
CS(=O)(=O)NCCc1ccccc1O | 1 | 1 | 0 | 0 |  | 14.4 |  | 
C=CC(=O)N(c1ccc(N(C)C)c(C)c1)C(C(=O)NC(C)(C)C)c1cccnc1 (configuration not stated) | 0.98 | 0.95 | 0 | 14.4 | 2.89 | 8.8 |  | 
O=C(Cc1c[nH]c2ncccc12)Nc1cccc(Cl)c1 | 0.99 | 0.97 | 0 |  | 5.95 | 9.34 |  | 
C=CC(=O)N(c1ccc(C(C)(C)C)cc1)C(C(=O)NC1CCCC1)c1cccnc1 (configuration not stated) | 1.01 | 1 | 0 | 1.68 | -10.5 | -12.8 |  | 
Cc1ccc(NC(=O)Cc2cccc(Cl)c2)cn1 | 0.99 | 1 |  | 0 | 0.36 | 3.35 |  | 
C=CC(=O)N1CCCC(c2nc3ccccc3s2)C1 (configuration not stated) | 0.99 | 0.99 | 0 | 0 |  | 14.5 |  | 
Cc1ccncc1NC(=O)CCc1ccccn1 | 1 | 1 |  | 11.4 | -0.904 | -28.6 |  | 
O=C(CCl)N1CCC(c2nc(-c3cccnc3)nc3ccccc23)CC1 | 0.92 | 0.8 |  | 100 | 56.8 | 71.5 | 14.9 | 
O=C(NCc1cccnn1)Nc1cccc(N2CCC2=O)c1 | 1 | 1 | 0 | 0 | 3.61 | 6.82 |  | 
O=C(NCc1ccno1)c1ccccc1OC1CCCCC1 | 1 | 1 | 0 |  | 4.09 | 5.82 |  | 
CN(C)C/C=C/C(=O)NCc1c[nH]c2ccccc12 | 0.96 | 0.98 | 0 |  | 3.86 | 0.744 |  | 
O=C(c1cc(=O)[nH]c2ccc(F)cc12)N1CCN(S(=O)(=O)c2ccc(Cl)cc2)CC1 | 0.98 | 0.81 |  | 50 | -1.84 | 11.4 |  | 
O=C(Nc1ccc([N+](=O)[O-])cc1Cl)c1cccc(Cl)c1 | 0.76 | 0.57 | 1.31 |  | -10.8 | -11.4 |  | 
COc1ccccc1N1CCN(C(=O)c2cc(=O)[nH]c3ccccc23)CC1 | 1 | 0.99 |  | 14.8 | 39 | 62.8 |  | 
N#CCN1CCN(Cc2cc(Cl)cc3ccccc23)CC1 | 0.91 | 0.92 | 10.4 | 10.2 |  | 5.55 |  | 
COc1cccc(N2CCN(C(=O)c3cc(=O)[nH]c4ccccc34)CC2)c1 | 0.99 | 0.95 |  | 83.3 | 78.5 | 90.8 | 19.7 | 
Cc1cccc(NC(=O)C(C#N)C(=O)C2CCCC2)c1 (configuration not stated) | 1 | 1 | 0.78 | 0 |  | -8.28 |  | 

SMILES | relative solubility at 20 uM | relative solubility at 100 uM | inhibition ([1]; 20.0 µM) [%] | inhibition ([1]; 50.0 µM) [%] | inhibition ([2]; 20.0 µM) [%] | inhibition ([2]; 50.0 µM) [%] | IC50 [1] [µM] | IC50 [2] [µM]
O=C(CCl)Nc1nc2c(S(=O)(=O)NCCc3ccccc3)cccc2s1 | 0.89 | 0.66 |  | 80.3 | 58 | 74.5 | 8.55 | 13.9
O=C(Cc1cncnc1)Nc1cccc(CCCc2ccccc2)c1 | 0.96 | 0.94 | 0 | 0 | 1.12 | 10.1 |  | 
O=C(Nc1ccc(N(Cc2ccsc2)C(=O)Cn2nnc3ccccc32)cc1)C1CC1 | 0.9 | 0.59 |  | 62.2 | 69 | 70.2 | 28.4 | 
Cc1cc(C)cc(NC(=O)Cn2cncc2C)c1 | 1 | 1 |  | 0 | -2.21 | 2.72 |  | 
CS(=O)(=O)Cc1ccc(C(=O)Nc2cccnc2)o1 | 1 | 1 | 0 |  | 0.469 | 6.26 |  | 
CCC(NC(=O)C(C)n1cncn1)c1ccccc1OCC(=O)N1CCCC1 (configuration not stated) | 1 | 0.99 | 0 | 0 | -0.907 | 0.701 |  | 
C=CC(=O)N(c1ccc(C(C)(C)C)cc1)C(C(=O)Nc1ccc(OC)nc1)c1cccnc1 (configuration not stated) | 1 | 1 | 0 | 0 | 1.08 | 13.4 |  | 
Cc1ccncc1NC(=O)Cc1cccc(C(N)=O)c1 | 1.01 | 1.01 |  | 0.535 | 2.66 | -5.83 |  | 
Cc1ccncc1NC(=O)Cc1cc(Cl)c2c(c1)OCCO2 | 1 | 1 |  | 10.9 | 9.83 | 22.2 |  | 
O=C(Nc1cnccc1CO)[C@@H]1COc2ccc(Cl)cc21 (stereo in doubt) | 1.01 | 1 |  | 58.6 | 46.1 | 73.1 | 18.4 | 
O=C(Nc1ccccc1Cl)c1cc(Cl)ccc1O | 0.91 | 0.7 | 7.14 |  | 5.47 | 5.58 |  | 
Cc1csc(C(=O)N/N=C/c2cccnc2)c1N | 0.99 | 0.93 |  | -6.32 | -0.86 | -19.8 |  | 
CN(C(=O)Cn1nnc2ccccc21)c1ccc(Oc2ccc(C(F)(F)F)cn2)cc1 | 0.98 | 0.87 |  | 19.2 | 30.2 | 59.4 |  | 
Cc1ccc(O)cc1NC(=O)C(C)(C)c1cccc(F)c1 | 1 | 0.92 |  | -0.631 | 1.12 | -11 |  | 
COc1ccc(S(=O)(=O)N2CCN(C(=O)c3cc(=O)[nH]c4cc(F)ccc34)CC2)cc1 | 0.87 | 0.9 |  | 0 | 5.98 | -3.27 |  | 
CS(=O)(=O)N1CCN(C(=O)CCl)CC1c1ccccc1 (configuration not stated) | 1 | 1 | 87.5 | 95.9 | 64.6 | 69.5 | 3.31 | 
O=C(Cc1cccc(Cl)c1)Nc1nnn[nH]1 | 1 | 1 |  | 27.2 | 23.3 | 49.1 |  | 
Cc1nnc(C2Cc3ccccc3CN2C(=O)CCl)o1 (configuration not stated) | 0.99 | 0.99 |  | 18.1 | 16.3 | 41.9 |  | 
Cc1ccncc1NC(=O)Cc1cccc(CO)c1 | 1 | 1 |  | 1.14 | 2.87 | 6.05 |  | 

SMILES | relative solubility at 20 uM | relative solubility at 100 uM | inhibition ([1]; 20.0 µM) [%] | inhibition ([1]; 50.0 µM) [%] | inhibition ([2]; 20.0 µM) [%] | inhibition ([2]; 50.0 µM) [%] | IC50 [1] [µM] | IC50 [2] [µM]
Cc1ccncc1N(C)C(=O)[C@@H]1C[C@H]1CF (stereo in doubt) | 1.01 | 1.01 |  | 4.57 | -7.38 | 1.67 |  | 
Cn1nncc1CC(=O)NC(c1ccccc1)c1nc2ccccc2n1C (configuration not stated) | 1 | 1 | 0 | 0 |  | 54.1 |  | 
O=C(CCl)NC(CO)c1cccc(Cl)c1 (configuration not stated) | 1 | 0.99 | 16 | 45.3 |  | 51.6 |  | 
CC(C(=O)O)c1ccc2c(c1)[nH]c1ccc(Cl)cc12 (configuration not stated) | 1 | 0.98 | 0 |  | -0.548 | 3.97 |  | 
C#CCN1CCN(C(=O)C=C)CC1 | 1.01 | 1.01 | 3.23 |  | -18.6 | -15 |  | 
Cc1nc(-c2cccc(CNC(=O)Nc3cccc(CN4CCCC4=O)c3)c2)n[nH]1 | 0.98 | 0.98 |  | 0 | 2.12 | 2.95 |  | 
O=C(Nc1cccnc1)Nc1ccc(Cl)s1 | 0.99 | 0.95 | 0 | 35.7 | 8.85 | 23.7 |  | 
N#CC(C(=O)Nc1ccccc1)C(=O)c1cccc(Cl)c1 (configuration not stated) | 0.98 | 0.98 | 0 | 0 | 24.1 | 44 |  | 
CC(=O)N1CCN(C(=O)Cc2ccccn2)CC1 | 1 | 1 | 0 | 0 | -0.517 | 3.52 |  | 
O=C(Nc1cccnc1)c1cc(Cl)ccc1-c1ccccc1 | 1 | 0.97 | 2.13 |  | 47.4 | 60.4 |  | 
Cc1ccncc1NC(=O)C12CCC(CO1)C2 (configuration not stated) | 1.01 | 1 |  | 0 | -5.84 | 9.66 |  | 
C=CC(=O)N(c1ccc(C(C)(C)C)cc1)C(C(=O)NC(C)(C)C)c1cccnc1 (configuration not stated) | 0.96 | 0.89 | 0 | 16.1 | 12.7 | 27.2 |  | 
COCc1cc(Cl)cc(CN2CCN(C(=O)CCl)CC2)c1 | 0.98 | 0.99 |  | 118 | 97.6 | 99.9 | 1.31 | 
O=C(CCNC(=O)c1c[nH]c2ccccc12)Nc1ccc(-n2cnc3ccccc32)cc1 | 0.82 | 0.54 |  | 43.9 | -3.48 | 8.08 |  | 
C=CC(=O)N(c1ccc(C(C)OC)cc1)C(C(=O)Nc1ccccc1Br)c1cccnc1 (configuration not stated) | 0.89 | 0.84 | 0 |  | 3.04 | 9.73 |  | 
Cc1ccccc1CNc1ccccc1NC(=O)C(O)c1cccnc1 (configuration not stated) | 0.95 | 0.94 | 4.59 | 35.7 | -0.056 | 7.28 |  | 
NS(=O)(=O)c1ccc(N2CCC(N3CCCCCC3)CC2)cc1 | 1 | 1 |  | 100 | -1.25 | 0.117 | 15.8 | 
O=C(NCc1ccccc1OCCO)C(=O)N[C@H]1C[C@H]1C1CCOCC1 (stereo in doubt) | 1.01 | 1 |  | 0 | 1.34 | -9.81 |  | 
